Assay results: ChEMBL document CHEMBL3124747, “Formosusin A, a novel specific inhibitor of mammalian DNA polymerase β from the fungus Paecilomyces formosus” (Bioorg Med Chem, 2014)

Experiments:
[1] = target: Deoxyribonuclease-1 (Bos taurus, UniProt P00639); assay: Inhibition of bovine deoxyribonuclease 1 assessed as inhibition of incorporation of dTTP into poly(dA)/oligo(dT)18 after 60 mins
[2] = target: Polynucleotide kinase (Enterobacteria phage T4, UniProt P06855); assay: Inhibition of T4 bacteriophage polynucleotide kinase assessed as inhibition of incorporation of dTTP into poly(dA)/oligo(dT)18 after 60 mins; design: species or system Tequatrovirus T4
Sequence of Polynucleotide kinase (P06855 whole entry): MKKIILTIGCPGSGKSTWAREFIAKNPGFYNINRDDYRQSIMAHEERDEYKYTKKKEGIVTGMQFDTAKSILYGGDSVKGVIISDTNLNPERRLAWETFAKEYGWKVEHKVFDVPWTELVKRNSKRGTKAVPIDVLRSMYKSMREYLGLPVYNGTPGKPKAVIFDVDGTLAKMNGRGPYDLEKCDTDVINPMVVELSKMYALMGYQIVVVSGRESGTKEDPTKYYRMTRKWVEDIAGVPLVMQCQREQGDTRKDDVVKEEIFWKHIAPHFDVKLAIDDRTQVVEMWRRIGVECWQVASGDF

[3] = target: Inosine-5'-monophosphate dehydrogenase 2 (Mus musculus, UniProt P24547); assay: Inhibition of mouse IMP dehydrogenase 2 assessed as inhibition of incorporation of dTTP into poly(dA)/oligo(dT)18 after 60 mins
Sequence of Inosine-5'-monophosphate dehydrogenase 2 (P24547 whole entry): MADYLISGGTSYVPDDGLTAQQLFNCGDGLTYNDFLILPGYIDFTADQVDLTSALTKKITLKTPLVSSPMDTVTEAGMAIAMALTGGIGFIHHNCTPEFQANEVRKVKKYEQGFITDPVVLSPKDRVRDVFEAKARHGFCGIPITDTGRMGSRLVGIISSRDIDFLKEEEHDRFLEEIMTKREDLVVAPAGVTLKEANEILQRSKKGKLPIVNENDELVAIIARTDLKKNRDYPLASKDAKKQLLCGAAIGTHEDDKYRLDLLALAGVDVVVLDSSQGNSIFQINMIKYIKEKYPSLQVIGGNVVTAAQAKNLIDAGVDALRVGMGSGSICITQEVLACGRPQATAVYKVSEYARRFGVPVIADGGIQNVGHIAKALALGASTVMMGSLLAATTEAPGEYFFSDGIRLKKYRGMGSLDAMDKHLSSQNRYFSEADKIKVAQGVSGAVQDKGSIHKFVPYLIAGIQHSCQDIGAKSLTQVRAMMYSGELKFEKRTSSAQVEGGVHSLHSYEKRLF

[4] = Inhibition of calf DNA primase of polymerase alpha assessed as inhibition of incorporation of dTTP into poly(dA)/oligo(dT)18 after 60 mins; design: species or system Bos taurus
[5] = target: Human immunodeficiency virus type 1 reverse transcriptase (Human immunodeficiency virus 1, UniProt Q72547); assay: Inhibition of HIV-1 reverse transcriptase assessed as inhibition of incorporation of dTTP into poly(rA)/oligo(dT)18 after 60 mins
[6] = target: T1, DNA-directed DNA polymerase (Enterobacteria phage T4, UniProt P04415); assay: Inhibition of T4 bacteriophage DNA polymerase assessed as inhibition of incorporation of dTTP into poly(dA)/oligo(dT)18 after 60 mins; design: species or system Tequatrovirus T4
T1 sequence (P04415 whole entry): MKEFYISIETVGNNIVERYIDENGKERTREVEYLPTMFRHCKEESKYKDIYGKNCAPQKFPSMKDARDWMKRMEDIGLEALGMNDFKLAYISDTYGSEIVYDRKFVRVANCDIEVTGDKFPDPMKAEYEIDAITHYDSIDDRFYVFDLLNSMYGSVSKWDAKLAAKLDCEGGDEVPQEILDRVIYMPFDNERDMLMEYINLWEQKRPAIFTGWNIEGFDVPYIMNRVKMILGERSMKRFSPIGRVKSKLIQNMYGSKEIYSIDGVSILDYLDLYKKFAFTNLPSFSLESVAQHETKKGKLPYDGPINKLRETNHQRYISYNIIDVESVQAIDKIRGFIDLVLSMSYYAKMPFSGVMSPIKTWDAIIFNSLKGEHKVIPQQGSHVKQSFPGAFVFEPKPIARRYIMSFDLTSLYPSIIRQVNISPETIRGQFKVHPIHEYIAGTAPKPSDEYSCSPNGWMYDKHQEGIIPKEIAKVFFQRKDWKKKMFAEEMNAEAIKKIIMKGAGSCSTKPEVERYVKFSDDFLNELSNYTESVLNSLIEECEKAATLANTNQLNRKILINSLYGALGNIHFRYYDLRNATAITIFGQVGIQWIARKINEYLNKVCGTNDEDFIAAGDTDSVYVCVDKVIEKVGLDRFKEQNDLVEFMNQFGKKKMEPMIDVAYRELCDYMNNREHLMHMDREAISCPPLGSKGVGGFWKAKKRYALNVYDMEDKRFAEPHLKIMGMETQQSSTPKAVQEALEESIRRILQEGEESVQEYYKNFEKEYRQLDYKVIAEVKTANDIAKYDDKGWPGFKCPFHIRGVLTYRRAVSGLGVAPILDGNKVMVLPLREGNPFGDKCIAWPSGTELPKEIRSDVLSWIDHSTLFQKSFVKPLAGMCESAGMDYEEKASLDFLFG

[7] = Inhibition of Thermus aquaticus DNA polymerase assessed as inhibition of incorporation of dTTP into poly(dA)/oligo(dT)18 after 60 mins
[8] = Inhibition of C-terminal His-6-tagged L. cv.Nipponbare rice recombinant DNA polymerase lambda expressed in Escherichia coli assessed as inhibition of incorporation of dTTP into poly(dA)/oligo(dT)18 after 60 mins; design: species or system Oryza sativa
[9] = Inhibition of fruit fly DNA polymerase epsilon assessed as inhibition of incorporation of dTTP into poly(dA)/oligo(dT)18 after 60 mins; design: species or system Drosophila melanogaster
[10] = Inhibition of cherry salmon DNA polymerase delta assessed as inhibition of incorporation of dTTP into poly(dA)/oligo(dT)18 after 60 mins; design: species or system Oncorhynchus masou
[11] = target: DNA nucleotidylexotransferase (Bos taurus, UniProt P06526); assay: Inhibition of calf thymus TdT assessed as inhibition of incorporation of dTTP into oligo(dT)18(3'OH) after 60 mins
Sequence of DNA nucleotidylexotransferase (P06526 whole entry): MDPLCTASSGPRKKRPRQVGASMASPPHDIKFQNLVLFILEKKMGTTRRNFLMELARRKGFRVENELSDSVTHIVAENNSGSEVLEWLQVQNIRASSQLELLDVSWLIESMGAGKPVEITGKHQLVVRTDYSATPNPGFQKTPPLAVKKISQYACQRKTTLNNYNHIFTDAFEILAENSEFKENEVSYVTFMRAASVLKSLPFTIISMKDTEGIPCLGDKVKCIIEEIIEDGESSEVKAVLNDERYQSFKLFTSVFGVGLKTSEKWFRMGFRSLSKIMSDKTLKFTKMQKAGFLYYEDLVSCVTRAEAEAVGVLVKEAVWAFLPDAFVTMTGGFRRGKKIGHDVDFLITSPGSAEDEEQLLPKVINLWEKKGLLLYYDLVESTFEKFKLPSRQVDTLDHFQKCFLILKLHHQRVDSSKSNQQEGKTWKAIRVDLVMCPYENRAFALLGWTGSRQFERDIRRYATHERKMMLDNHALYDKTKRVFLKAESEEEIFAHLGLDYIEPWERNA

[12] = target: T2, DNA polymerase lambda (Homo sapiens, UniProt Q9UGP5); assay: Inhibition of human recombinant His-tagged DNA polymerase lambda expressed in Escherichia coli assessed as inhibition of incorporation of dTTP into poly(dA)/oligo(dT)18 after 60 mins
T2 sequence (Q9UGP5 whole entry): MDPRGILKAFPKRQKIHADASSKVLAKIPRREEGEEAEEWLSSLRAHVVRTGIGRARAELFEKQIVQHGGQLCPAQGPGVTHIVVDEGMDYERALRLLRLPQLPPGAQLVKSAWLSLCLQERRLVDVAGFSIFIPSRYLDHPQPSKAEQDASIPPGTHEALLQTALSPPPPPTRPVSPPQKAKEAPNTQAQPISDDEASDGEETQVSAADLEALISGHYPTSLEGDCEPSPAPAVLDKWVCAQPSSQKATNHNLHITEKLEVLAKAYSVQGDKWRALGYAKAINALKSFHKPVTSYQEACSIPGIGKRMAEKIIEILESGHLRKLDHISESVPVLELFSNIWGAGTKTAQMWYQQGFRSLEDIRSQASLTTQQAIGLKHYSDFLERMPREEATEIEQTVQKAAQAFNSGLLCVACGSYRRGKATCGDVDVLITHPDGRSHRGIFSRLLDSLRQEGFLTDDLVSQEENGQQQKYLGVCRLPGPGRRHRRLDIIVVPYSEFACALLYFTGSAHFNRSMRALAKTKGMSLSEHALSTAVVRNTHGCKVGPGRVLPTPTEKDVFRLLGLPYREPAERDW

[13] = target: DNA polymerase beta (Rattus norvegicus, UniProt P06766); assay: Inhibition of recombinant rat DNA polymerase beta expressed in Escherichia coli JMpbeta5 assessed as inhibition of incorporation of dTTP into poly(dA)/oligo(dT)18 after 60 mins
[14] = Inhibition of DNA polymerase epsilon isolated from human MOLT4 cells assessed as inhibition of incorporation of dTTP into poly(dA)/oligo(dT)18 after 60 mins; assay type: cell-free; settings: molt-4
[15] = Inhibition of human His-tagged DNA polymerase gamma expressed in baculovirus assessed as inhibition of incorporation of dTTP into poly(dA)/oligo(dT)18 after 60 mins

Sequence of Deoxyribonuclease-1 (P00639 whole entry): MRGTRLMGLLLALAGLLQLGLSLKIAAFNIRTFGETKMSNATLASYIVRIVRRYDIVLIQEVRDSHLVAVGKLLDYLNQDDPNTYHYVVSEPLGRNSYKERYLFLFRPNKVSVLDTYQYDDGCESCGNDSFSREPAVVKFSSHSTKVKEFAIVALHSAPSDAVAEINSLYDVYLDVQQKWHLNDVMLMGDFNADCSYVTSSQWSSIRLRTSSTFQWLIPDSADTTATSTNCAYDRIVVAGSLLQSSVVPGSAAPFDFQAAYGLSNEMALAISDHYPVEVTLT

SMILES	IC50 [1] [µM]	IC50 [2] [µM]	IC50 [3] [µM]	IC50 [4] [µM]	IC50 [5] [µM]	IC50 [6] [µM]	IC50 [7] [µM]	IC50 [8] [µM]	IC50 [9] [µM]	IC50 [10] [µM]	IC50 [11] [µM]	IC50 [12] [µM]	IC50 [13] [µM]	IC50 [14] [µM]	IC50 [15] [µM]
CC(/C=C/CCC(=O)N1CCCC1=O)=C\C1CCCCO1 (stereo not given)	> 200	> 200	> 200	> 200	> 200	> 200	> 200	> 200	> 200	> 200	> 200	> 200	> 200	> 200	> 200
CCCCC(=O)/C=C(C)/C=C/CCC(=O)N1CCCC1=O	> 200	> 200	> 200	> 200	> 200	> 200	> 200	> 200	> 200	> 200	> 200	> 200	> 200	> 200	> 200
CCCC[C@@H](O)/C=C(C)/C=C/C=C/C(=O)N1CCCC1=O [PECILOCIN]	> 200	> 200	> 200	> 200	> 200	> 200	> 200	> 200	> 200	> 200	> 200	> 200	> 200	> 200	> 200
CCCC[C@@H](O)/C=C(C)/C=C/C=C\C(=O)N1CCCC1=O	> 200	> 200	> 200	> 200	> 200	> 200	> 200	> 200	> 200	> 200	> 200	> 200	35.6	> 200	> 200
